Results as given in patent US20260217701A1, “SELECTIVE BET INHIBITORS AND USES THEREOF” (Tay Therapeutics Limited, priority 2022, published 2026).

Key:
BRD4 BD2 = target: T1, BRD4 BD2 (Homo sapiens, UniProt O60885); test: NanoBRET bromodomain assay, NanoLuc-BRD4-BD2 in HEK293 cells; type: binding; details: for Fold Selectivity BRD4 BD1/BD2: IC50 BD1/IC50 BD2, qualitative if an IC50 is at the upper limit
T1 construct: HEK293 cells were transfected using NanoLuc-BRD4-BD1 or NanoLuc-BRD4-BD2 fusion vectors
Description: (§1) Plates were then incubated at 37° C.+5% CO2 incubator for 2 hours.
(§2) Fold Selectivity Calculated (IC50 BD1/IC50 BD2).

BRD4 BD1 = target: T2, BRD4 BD1 (Homo sapiens, UniProt O60885); test: NanoBRET bromodomain assay, NanoLuc-BRD4-BD1 in HEK293 cells; type: binding
T2 construct: HEK293 cells were transfected using NanoLuc-BRD4-BD1 or NanoLuc-BRD4-BD2 fusion vectors
Description: Exemplary compounds of the disclosure are active against BRD4 BD2 and selective over BRD4 BD1. BRD4 is a representative example of the BET family, as the binding sites of all BET family members are structurally similar. […] IC50s and fold selectivity's are determined as described below and are represented in Table 1.
as §1, §2

Structure (SMILES) | IC50 (BRD4 BD2) [nM] | Fold Selectivity BRD4 BD1/BD2 (BRD4 BD2) | IC50 (BRD4 BD1) [nM]
Cn1cc(-c2cc(=O)n(CCN3CCOCC3)cc2-c2ccccc2)c2cc(-c3cnn(C(F)(F)F)c3)[nH]c2c1=O [Example 62, 6-methyl-4-(1-(2-morpholinoethyl)-2-oxo-5-phenyl-1,2-dihydropyridin-4-yl)-2-(1-(trifluoromethyl)-1H-pyrazol-4-yl)-1,6-dihydro-7H-pyrrolo[2,3-c]pyridin-7-one] | < 10 | xxxx (Fold >1000) | > 1000
CN1CCC(n2cc(-c3ccccc3)c(-c3cn(C)c(=O)c4[nH]c(-c5cnn(C(F)(F)F)c5)cc34)cc2=O)CC1 [Example 63, 6-methyl-4-(1-(1-methylpiperidin-4-yl)-2-oxo-5-phenyl-1,2-dihydropyridin-4-yl)-2-(1-(trifluoromethyl)-1H-pyrazol-4-yl)-1,6-dihydro-7H-pyrrolo[2,3-c]pyridin-7-one] | < 10 | xx (Fold >50 and ≤200) | 500 to 1000
Cn1cc(-c2cc(=O)n(C3CC(O)C3)cc2-c2ccccc2)c2cc(-c3cnn(C(F)(F)F)c3)[nH]c2c1=O (stereo not drawn) [Example 64, 4-(1-(3-hydroxycyclobutyl)-2-oxo-5-phenyl-1,2-dihydropyridin-4-yl)-6-methyl-2-(1-(trifluoromethyl)-1H-pyrazol-4-yl)-1,6-dihydro-7H-pyrrolo[2,3-c]pyridin-7-one] | 50 to 200 | x (Fold >2 and ≤50) | 500 to 1000
CC(C)n1cc(-c2[nH]c3c(=O)n(C)cc(-c4cc(=O)n(C)cc4-c4ccccc4)c3c2F)cn1 [Example 65, 4-[3-fluoro-2-(1-isopropylpyrazol-4-yl)-6-methyl-7-oxo-1H-pyrrolo[2,3-c]pyridin-4-yl]-1-methyl-5-phenylpyridin-2-one] | 10 to 50 | xxx (Fold >200 and ≤1000) | > 1000
Cn1cc(-c2cccnc2)c(-c2cn(C)c(=O)c3[nH]c(-c4cnn(C(F)(F)F)c4)cc23)cc1=O [Example 66, 6-methyl-4-(1-methyl-6-oxo-1,6-dihydro-[3,3′-bipyridin]-4-yl)-2-(1-(trifluoromethyl)-1H-pyrazol-4-yl)-1,6-dihydro-7H-pyrrolo[2,3-c]pyridin-7-one] | 200 to 1000 | x (Fold >2 and ≤50) | > 1000
Cn1cc(-c2cccnc2)c(-c2cn(C)c(=O)c3[nH]c(-c4cnn(C(F)(F)F)c4)c(F)c23)cc1=O [Example 67, 3-fluoro-6-methyl-4-(1-methyl-6-oxo-1,6-dihydro-[3,3′-bipyridin]-4-yl)-2-(1-(trifluoromethyl)-1H-pyrazol-4-yl)-1,6-dihydro-7H-pyrrolo[2,3-c]pyridin-7-one] | 10 to 50 | xxx (Fold >200 and ≤1000) | > 1000
Cn1cc(-c2c(-c3ccccc3)cn(CCO)c(=O)c2C(F)(F)F)c2cc(-c3cnn(C(F)(F)F)c3)[nH]c2c1=O [Example 68, 4-(1-(2-hydroxyethyl)-2-oxo-5-phenyl-3-(trifluoromethyl)-1,2-dihydropyridin-4-yl)-6-methyl-2-(1-(trifluoromethyl)-1H-pyrazol-4-yl)-1,6-dihydro-7H-pyrrolo[2,3-c]pyridin-7-one] | 200 to 1000 | x (Fold >2 and ≤50) | > 1000
Cn1cc(-c2ccccc2)c(-c2cn(C)c(=O)c3[nH]c(-c4ccc(F)c(C(C)(C)O)c4)cc23)cc1=O [Example 69] | < 10 | xxx (Fold >200 and ≤1000) | 500 to 1000
Cn1cc(-c2ccccc2C(F)F)c(-c2cn(C)c(=O)c3[nH]c(-c4ccc(F)cc4F)cc23)cc1=O [Example 70] | 200 to 1000 | x (Fold >2 and ≤50) | > 1000
CC(C)c1cc(-c2cc3c(-c4cc(=O)n(C)cc4-c4ccccc4)cn(C)c(=O)c3[nH]2)ccc1F [Example 71] | 50 to 200 | xx (Fold >50 and ≤200) | > 1000
CC(C)n1cc(-c2cc3c(-c4cc(=O)n(C)cc4-c4cccc(CS(C)(=O)=O)c4)cn(C)c(=O)c3[nH]2)cn1 [Example 72] | 200 to 1000 | x (Fold >2 and ≤50) | > 1000
Cn1cc(-c2cccc(CN3CCNCC3)c2)c(-c2cn(C)c(=O)c3[nH]c(-c4ccc(F)cc4F)cc23)cc1=O [Example 73] | 200 to 1000 | x (Fold >2 and ≤50) | > 1000
COCCOc1cccc(-c2cn(C)c(=O)cc2-c2cn(C)c(=O)c3[nH]c(-c4cnn(C(C)C)c4)cc23)c1 [Example 74] | 10 to 50 | xx (Fold >50 and ≤200) | > 1000
CC(C)n1cc(-c2cc3c(-c4cc(=O)n(C)cc4-c4cccc(OCCO)c4)cn(C)c(=O)c3[nH]2)cn1 [Example 75] | 200 to 1000 | x (Fold >2 and ≤50) | > 1000
Cn1cc(-c2cccc(OCCO)c2)c(-c2cn(C)c(=O)c3[nH]c(-c4ccc(F)cc4F)cc23)cc1=O [Example 76] | 10 to 50 | xxx (Fold >200 and ≤1000) | > 1000
Cn1cc(-c2cccc(CS(C)(=O)=O)c2)c(-c2cn(C)c(=O)c3[nH]c(-c4ccc(F)cc4F)cc23)cc1=O [Example 77] | 50 to 200 | xx (Fold >50 and ≤200) | > 1000
CC(C)n1cc(-c2cc3c(-c4cc(=O)n(C)cc4-c4cccc(CN5CCOCC5)c4)cn(C)c(=O)c3[nH]2)cn1 [Example 78] | 10 to 50 | xxx (Fold >200 and ≤1000) | > 1000
Cn1cc(-c2ccccc2Cl)c(-c2cn(C)c(=O)c3[nH]c(-c4ccc(F)cc4F)cc23)cc1=O [Example 79] | 10 to 50 | xxx (Fold >200 and ≤1000) | > 1000

Structure (SMILES) | IC50 (BRD4 BD2) [nM] | Fold Selectivity BRD4 BD1/BD2 (BRD4 BD2) | IC50 (BRD4 BD1) [nM]
Cn1cc(-c2ccccc2)c(-c2cn(C)c(=O)c3[nH]c(-c4cccnc4)cc23)cc1=O [Example 80] | < 10 | xx (Fold >50 and ≤200) | 50 to 500
Cn1ccc(-c2cc3c(-c4cc(=O)n(C)cc4-c4ccccc4)cn(C)c(=O)c3[nH]2)cc1=O [Example 81] | 50 to 200 | xx (Fold >50 and ≤200) | > 1000
Cn1cc(-c2ccccc2)c(-c2cn(C)c(=O)c3[nH]c(-c4c(F)cccc4F)cc23)cc1=O [Example 82] | 50 to 200 | xx (Fold >50 and ≤200) | > 1000
Cn1cc(-c2ccccc2)c(-c2cn(C)c(=O)c3[nH]c(-c4cccc(S(C)(=O)=O)c4)cc23)cc1=O [Example 83] | < 10 | xx (Fold >50 and ≤200) | 500 to 1000
Cn1cc(-c2ccccc2)c(-c2cn(C)c(=O)c3[nH]c(-c4cccc(C5COC5)c4)cc23)cc1=O [Example 84] | < 10 | xx (Fold >50 and ≤200) | 50 to 500
COCc1cccc(-c2cc3c(-c4cc(=O)n(C)cc4-c4ccccc4)cn(C)c(=O)c3[nH]2)c1 [Example 85] | < 10 | xxxx (Fold >1000) | > 1000
Cc1cc(-c2cc3c(-c4cc(=O)n(C)cc4-c4ccc(S(C)(=O)=O)cc4)cn(C)c(=O)c3[nH]2)cc(C)n1 [Example 86] | 200 to 1000 | x (Fold >2 and ≤50) | > 1000
Cc1cccc(C)c1Oc1cn(C2CC2)c(=O)cc1-c1cn(C)c(=O)c2[nH]c(-c3cccc(F)c3F)cc12 [Example 87] | > 1000 | — (Fold ≥0 and ≤2) | > 1000
Cc1cccc(C)c1Oc1cn(C)c(=O)cc1-c1cn(C)c(=O)c2[nH]c(-c3cc(F)c(F)cc3F)cc12 [Example 88] | 10 to 50 | xxx (Fold >200 and ≤1000) | > 1000
Cc1cc(-c2cc3c(-c4cc(=O)n(C)cc4-c4cccc(S(C)(=O)=O)c4)cn(C)c(=O)c3[nH]2)cc(C)n1 [Example 89] | 50 to 200 | xx (Fold >50 and ≤200) | > 1000
Cn1cc(-c2ccccc2)c(-c2cn(C)c(=O)c3[nH]c(-c4cccc(F)c4F)cc23)cc1=O [Example 90] | 10 to 50 | xxx (Fold >200 and ≤1000) | > 1000
Cc1nn(C2COC2)cc1-c1cc2c(-c3cc(=O)n(C)cc3-c3ccccc3)cn(C)c(=O)c2[nH]1 [Example 91] | 10 to 50 | xx (Fold >50 and ≤200) | > 1000
Cc1cccc(C)c1Oc1cn(C)c(=O)cc1-c1cn(C)c(=O)c2[nH]c(-c3cc(CO)ccc3F)cc12 [Example 92] | 10 to 50 | xxx (Fold >200 and ≤1000) | > 1000
Cc1cccc(C)c1Oc1cn(C)c(=O)cc1-c1cn(C)c(=O)c2[nH]c(-c3ccc(F)c(F)c3F)cc12 [Example 93] | 50 to 200 | xx (Fold >50 and ≤200) | > 1000
Cc1cccc(C)c1Oc1cn(C2CC2)c(=O)cc1-c1cn(C)c(=O)c2[nH]c(-c3cn(C)nc3C)cc12 [Example 94] | 10 to 50 | xxx (Fold >200 and ≤1000) | > 1000
Cc1cccc(C)c1Oc1cn(C)c(=O)cc1-c1cn(C)c(=O)c2[nH]c(-c3cccc(C(F)F)c3F)cc12 [Example 95] | 50 to 200 | xx (Fold >50 and ≤200) | > 1000
Cc1cccc(C)c1Oc1cn(C)c(=O)cc1-c1cn(C)c(=O)c2[nH]c(-c3cnn(CC#N)c3)cc12 [Example 96] | 10 to 50 | x (Fold >2 and ≤50) | 500 to 1000
